Reference: publication PMC10382584, “Macrocyclization of linear molecules by deep learning to facilitate macrocyclic drug candidates discovery” (Nature Communications, 2023)
“And” between values parts separate entries of the source, which are not always exact repeats. Identical values can stand only once. Like-named read-outs stand apart in the source and are kept apart here.

Experiments:
[1] = Chemical stability in DMSO stock solution (HPLC purity); format: physicochemical; conditions: mean±SD
From the text: compounds were formulated in the solubilizing vehicle (5% DMSO/30% PEG400/65% […]
safety to the mice in the test.
6. What was the sample dissolved in for the in vitro and in vivo experiments? Response: The solvent information for the in vitro and in vivo experiments has been added in the revised manuscript. […]
7. Was the stability of the different compounds assessed and compared to Fedratinib? This is generally a critical point in macrocyclic studies. […]
in DMSO stock solution. Test compounds were incubated at room temperature and 60 ℃, respectively, for 72 h, and their purities (%) were determined using HPLC equipped with a CORTECS C18 column (4.6*50 mm, 2.7 μm particle size) and a UV/VIS detector setting of λ=210 nm. All co mpounds were eluted with the two solvent systems ([…] as organic phase in Method I and CH3OH as organic phase in Method II) at a flow rate of 0.3 ml/min. Each experiment repeated for three times and the results are represented as mean±SD.
Ta b e l R 1 . Comparison of chemical stability of different compounds at room temperature and 60 ℃, respectively.

[2] = In vivo PK study in mice; conditions: male, BALB/c, mouse, plasma, 5 mg/kg;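 also: mice dosed intravenously or orally, three animals per time point, plasma drug levels quantified by LC-MS/MS, PK parameters derived by noncompartmental analysis in Phoenix WinNonLin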
Description: The mice were separately administered to a group of three mice per time point for intravenous (5 mg/kg) or oral administration (5 mg/kg). […] Then the samples were separated by centrifugation and analyzed by LC-MS/MS (XEVO TQ-S) to determine the plasma drug concentrations. The PK parameters were calculated using the noncompartment model with Phoenix WinNonLin v8.0. The animal experimental procedures were approved by the Medicine Research Ethics Committee of Hangzhou Leading Pharmatech Co., Ltd.

[3] = system: SET-2 cells; assay: Cell proliferation assay (CCK-8), SET-2 cells; format: cell-based, human; conditions: for Inhibition (%): single wells of replicate 1 and replicate 2
Description: (§1) The human erythroid leukemia (HEL 92.1.7) cells were purchased from the American Type Culture Collection (ATCC, TIB-180), and the human megakaryoblastic (SET2) cells were obtained from German Collection of Microorganisms and Cell Cultures (DSMZ, ACC 608). The anti-proliferative activities of compounds were evaluated using WST-8 cell counting kit-8 (Elabscience). HEL and SET-2 cells were seeded at 5000 cells/well in 70 μL RPMI-1640 medium (Hyclon) with 10% FBS (Gibco) to the 96-well plate and incubated overnight at 37 °C with 5% CO2. The compounds were serially diluted in RPMI-1640 medium, and cells were treated separately with 30 μL various concentrations of compounds for 72 h. The final DMSO concentration in the culture wells was 0.1%, which had no effect on the cell viability. Finally, 10 μL of CCK-8 solution was added into the wells. 4 h later, the absorbance values at 450 nm were recorded. IC50 values were determined using GraphPad Prism v8.3.0, and three parallel experiments were performed.

[4] = system: HEL cells; assay: Cell proliferation assay (CCK-8), HEL cells; format: cell-based, human
Description: as §1

For `Cc1cnc(Nc2ccc(OCCN3CCCC3)cc2)nc1Nc1cccc(S(=O)(=O)NC(C)(C)C)c1` [Fedratinib], the “purity after incubation in DMSO stock solution” value (“purity after incubation” for short) ([1]; 60 ℃, 0 h) was 98.91±0.10%, the “purity after incubation” value ([1]; 60 ℃, 2 h) was 98.91±0.10% and the “purity after incubation” value ([1]; 60 ℃, 24 h) was 98.89±0.17%. The “purity after incubation” value ([1]; 60 ℃, 48 h) was 100.00±0.00%, the “purity after incubation” value ([1]; 60 ℃, 72 h) was 98.96±0.15% and the “purity after incubation” value ([1]; Room Temperature, 0 h) was 99.36±0.06%. The “purity after incubation” value ([1]; Room Temperature, 2 h) was 99.11±0.14%, the “purity after incubation” value ([1]; Room Temperature, 24 h) was 99.99±0.00% and the “purity after incubation” value ([1]; Room Temperature, 48 h) was 99.08±0.02%. The “purity after incubation” value ([1]; Room Temperature, 72 h) was 99.57±0.06%, the AUC(0-inf) ([2]; iv) was 227 ng·h/mL and the Cmax ([2]; iv) was 275 ng/mL. For the same compound, the Tmax ([2]; iv) was 4.98 min, the half-life ([2]; iv) was 18 min and the bioavailability ([2]; oral) was 11.7%. For the same compound, the AUC(0-inf) ([2]; po) was 50.2 ng·h/mL, the Cmax ([2]; po) was 6.81 ng/mL and the Tmax ([2]; po) was 60 min. For the same compound, the half-life ([2]; po) was 282 min, the IC50 ([3]; Homo sapiens, SET-2, 72 h, SET-2 cells, 72 h, mean ± SD, read-out: Cellular Antiproliferative Activity (IC50) SET-2) was 1.12 ± 0.08 µM and the IC50 ([3]; Homo sapiens, SET-2, SET-2 cell lines, mean of two replicates, read-out: IC50/μM mean) was 1.12 µM. The IC50 ([3]; Homo sapiens, SET-2, SET-2 cell lines, mean ± sd of two replicates, read-out: IC50/μM mean ± sd) was 1.12 ± 0.08 µM, the IC50 ([3]; Homo sapiens, SET-2, SET-2 cell lines, value of each single replicate, read-out: IC50/μM) was 1.07 µM and the “Inhibition (%)” value ([3]; SET-2 cell lines, C 0.0977 μM) was 12.0389% and 5.1759% and -0.6577% and 17.763% and 22.009% and 18.591%. The “Inhibition (%)” value ([3]; SET-2 cell lines, C 0.1953 μM) was 22.4478% and 11.8101% and 6.6629% and 13.309% and 23.874% and 25.324%, the “Inhibition (%)” value ([3]; SET-2 cell lines, C 0.3906 μM) was 33.6574% and 13.6403% and 14.6697% and 30.399% and 33.402% and 33.506% and the “Inhibition (%)” value ([3]; SET-2 cell lines, C 0.7813 μM) was 33.8862% and 39.7198% and 32.9711% and 35.163% and 37.960% and 48.110%. The “Inhibition (%)” value ([3]; SET-2 cell lines, C 1.5625 μM) was 69.3452% and 65.5705% and 67.2862% and 30.399% and 43.553% and 55.671%, the “Inhibition (%)” value ([3]; SET-2 cell lines, C 3.1250 μM) was 88.2185% and 85.2445% and 86.3883% and 75.039% and 80.010% and 81.357% and the “Inhibition (%)” value ([3]; SET-2 cell lines, C 6.2500 μM) was 86.3883% and 85.8164% and 88.9048% and 71.725% and 72.139% and 76.385%. The “Inhibition (%)” value ([3]; SET-2 cell lines, C 12.5000 μM) was 97.7123% and 97.3692% (2×) and 89.643% (2×) and 91.093%, the IC50 ([3]; SET-2 cell lines, value of each single replicate, read-out: IC50/μM) was 1.16 µM and the “Inhibition (%)” value ([4]; HEL cell lines, 0.0977 μM, single wells, replicates 1 and 2) was 3.834% and 2.092% and -5.316% and -2.068% and -2.146% and 0.251%. The “Inhibition (%)” value ([4]; HEL cell lines, 0.1953 μM, single wells, replicates 1 and 2) was 5.577% and 4.096% and -7.320% and -6.244% and 7.056% and 1.643%, the “Inhibition (%)” value ([4]; HEL cell lines, 0.3906 μM, single wells, replicates 1 and 2) was 16.296% and 7.233% and 2.004% and -5.316% and 4.195% and -1.991% and the “Inhibition (%)” value ([4]; HEL cell lines, 0.7813 μM, single wells, replicates 1 and 2) was 26.492% and 16.296% and 14.205% and 10.690% and 13.319% and 1.875%. For the same compound, the “Inhibition (%)” value ([4]; HEL cell lines, 1.5625 μM, single wells, replicates 1 and 2) was 66.754% and 58.911% and 59.608% and 37.908% and 40.692% and 44.790%, the “Inhibition (%)” value ([4]; HEL cell lines, 3.1250 μM, single wells, replicates 1 and 2, 3.125 µM) was 88.628% and 87.669% and 91.881% and 90.412% and 89.871% and the “Inhibition (%)” value ([4]; HEL cell lines, 6.2500 μM, single wells, replicates 1 and 2, 6.25 µM) was 90.893% and 89.499% and 94.355% and 93.737% and 94.510%. The “Inhibition (%)” value ([4]; HEL cell lines, 12.5000 μM, single wells, replicates 1 and 2, 12.5 µM) was 91.590% and 91.503% and 95.902% (2×) and 96.056%, the IC50 ([4]; HEL cell lines, single-replicate fits, read-out: IC50/μM (individual replicates), cellular antiproliferative activity) was 1.38 µM and the IC50 ([4]; Homo sapiens, HEL, 72 h, HEL cells, 72 h, mean ± SD, read-out: Cellular Antiproliferative Activity (IC50) HEL) was 1.34 ± 0.06 µM. It also gave an inhibition at 3.125 µM ([4]; Homo sapiens, HEL, HEL cell lines, 3.1250 μM, single wells, replicates 1 and 2) of 90.5%, an inhibition at 6.25 µM ([4]; Homo sapiens, HEL, HEL cell lines, 6.2500 μM, single wells, replicates 1 and 2) of 92.1% and an inhibition at 12.5 µM ([4]; Homo sapiens, HEL, HEL cell lines, 12.5000 μM, single wells, replicates 1 and 2) of 93.2%. The inhibition at 25 µM ([4]; Homo sapiens, HEL, HEL cell lines, […], single wells, replicates 1 and 2) was 94.5%, the IC50 ([4]; Homo sapiens, HEL, HEL cell lines, mean of 2 replicates, read-out: IC50/μM mean, cellular antiproliferative activity) was 1.34 µM and the IC50 ([4]; Homo sapiens, HEL, HEL cell lines, mean ± sd of 2 replicates, read-out: IC50/μM mean ± sd, cellular antiproliferative activity) was 1.34 ± 0.06 µM. It also gave an IC50 ([4]; Homo sapiens, HEL, HEL cell lines, single-replicate fits, read-out: IC50/μM (individual replicates), cellular antiproliferative activity) of 1.29 µM.
